Test results as given in patent US20100068786A1, “METHODS AND COMPOSITIONS FOR REVERSING P-GLYCOPROTEIN MEDICATED DRUG RESISTANCE” (priority 2008, published 2010).

Columns and labels:
MCF-7/DX1 = MCF-7/DX1 vs MCF-7 cells; cited from earlier work
P-gp [1] = target: T1, P-gp (Mus musculus, UniProt P21447); settings: co-administration in mice of P-gp inhibitor LY335979 and nelfinavir; cited from earlier work
T1 construct: A comparison of P-gp knock-out mice to their wild-type counterparts; host or cells: mouse, in vivo (blood-brain barrier)

P-gp [2] = target: T1, P-gp; settings: P-gp knock-out mice vs wild-type; cited from earlier work
[3] = system: implanted human glioblastomas; settings: cited from earlier work
MCF-7/DX1 cells = test: MTT cell viability assay, reversal of taxol resistance; type: cell-based, human; settings: P-gp over-expressing MCF-7/DX1 cell line, FIG. 8
Protocol: The inhibition of P-gp transport was evaluated with the prodrug dimers and monomer controls in the human carcinoma MCF7-DX1 cell line.
The P-gp-mediated multidrug resistance phenotype of cancer cells is characterized by the ability of cells to evade the cytotoxic effects of drugs that are substrates of P-gp and remain viable even at high extracellular drugs concentrations. One such compound is the cytostatic agent taxol, which is also a known P-gp substrate (Horwitz et al., 1993). Cells lines that over-express P-gp, such as the MCF-7/DX1 cell line, display a 3000-fold decrease in susceptibility to taxol (FIG. 8).

T1 sequence (P21447 whole entry): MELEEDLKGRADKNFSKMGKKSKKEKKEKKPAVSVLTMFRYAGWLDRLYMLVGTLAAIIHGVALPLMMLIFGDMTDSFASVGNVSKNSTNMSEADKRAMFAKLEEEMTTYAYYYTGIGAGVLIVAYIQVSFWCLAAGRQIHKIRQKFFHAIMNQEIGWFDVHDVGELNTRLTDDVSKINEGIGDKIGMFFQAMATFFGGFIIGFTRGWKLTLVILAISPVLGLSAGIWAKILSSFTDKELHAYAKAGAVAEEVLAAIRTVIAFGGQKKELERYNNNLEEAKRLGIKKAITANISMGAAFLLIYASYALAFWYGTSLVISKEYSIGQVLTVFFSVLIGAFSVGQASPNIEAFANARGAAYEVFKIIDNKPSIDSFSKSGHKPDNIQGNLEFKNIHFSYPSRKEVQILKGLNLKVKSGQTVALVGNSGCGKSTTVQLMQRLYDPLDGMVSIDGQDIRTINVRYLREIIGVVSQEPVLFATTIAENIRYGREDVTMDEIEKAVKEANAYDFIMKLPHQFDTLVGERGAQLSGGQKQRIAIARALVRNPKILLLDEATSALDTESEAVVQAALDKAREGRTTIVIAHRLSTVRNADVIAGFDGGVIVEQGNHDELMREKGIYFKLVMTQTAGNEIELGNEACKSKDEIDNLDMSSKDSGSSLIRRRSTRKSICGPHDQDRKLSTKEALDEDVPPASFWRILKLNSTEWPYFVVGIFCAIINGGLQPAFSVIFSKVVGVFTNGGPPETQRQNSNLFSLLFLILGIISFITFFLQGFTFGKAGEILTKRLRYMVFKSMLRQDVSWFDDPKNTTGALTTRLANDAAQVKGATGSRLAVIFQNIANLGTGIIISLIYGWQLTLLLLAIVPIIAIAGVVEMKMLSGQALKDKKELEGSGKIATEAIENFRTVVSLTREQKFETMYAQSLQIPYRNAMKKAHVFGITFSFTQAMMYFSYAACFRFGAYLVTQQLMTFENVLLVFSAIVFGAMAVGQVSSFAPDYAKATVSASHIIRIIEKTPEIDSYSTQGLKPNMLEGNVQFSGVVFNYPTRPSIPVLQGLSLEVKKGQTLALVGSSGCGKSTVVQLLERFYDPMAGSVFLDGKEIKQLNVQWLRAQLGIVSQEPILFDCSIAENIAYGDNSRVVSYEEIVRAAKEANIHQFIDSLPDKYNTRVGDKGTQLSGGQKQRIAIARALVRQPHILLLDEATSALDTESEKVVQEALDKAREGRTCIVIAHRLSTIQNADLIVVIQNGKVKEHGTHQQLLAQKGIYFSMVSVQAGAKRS

## COc1cccc2c1C(=O)c1c(O)c3c(c(O)c1C2=O)C[C@@](O)(C(=O)CO)C[C@@H]3O[C@H]1C[C@H](N)[C@H](O)[C@H](C)O1 [doxorubicin]
MCF-7/DX1
  resistance to doxorubicin: 200 fold

## Cc1c(O)cccc1C(=O)N[C@@H](CSc1ccccc1)[C@H](O)CN1C[C@H]2CCCC[C@H]2C[C@H]1C(=O)NC(C)(C)C [nelfinavir]
P-gp [1]
  increase in the level of the therapeutic agent in the brain: 25 fold
P-gp [2]
  increase in brain penetration: 40 fold

## CC(C)(C)NC(=O)[C@@H]1C[C@@H]2CCCC[C@@H]2CN1C[C@@H](O)[C@H](Cc1ccccc1)NC(=O)[C@H](CC(N)=O)NC(=O)c1ccc2ccccc2n1 [saquinavir]
P-gp [2]
  increase in brain penetration: 10 fold

## CC(=O)O[C@H]1C(=O)[C@@]2(C)[C@H]([C@H](OC(=O)c3ccccc3)[C@]3(O)C[C@H](OC(=O)[C@H](O)[C@@H](NC(=O)c4ccccc4)c4ccccc4)C(C)=C1C3(C)C)[C@]1(OC(C)=O)CO[C@@H]1C[C@@H]2O [taxol, paclitaxel]
[3]; co-administration of paclitaxel with valspodar (PSC833) in mice
  reduction of growth of implanted human glioblastomas: 90%
[3]; treatment with either drug alone, mice
  effect on tumor size: no effect
MCF-7/DX1 cells
  decrease in susceptibility to taxol: 3000 fold
